# Biological target: T1, NMDA receptor GRIN1/GRIN2B (NR2B) expressed in HEK293 cells (Homo sapiens, UniProt Q13224)
# T1 construct: host or cells: HEK293
# Assay: Reversal of Ro 25-6981-mediated suppression of the Ca2+ response (fluo-8 fluorescence, FDSS) in HEK293 cells expressing GRIN1 and GRIN2B
# Format: cell-based
# Conditions: % reversal=100*(R−Rneg)/(Rpos−Rneg) of Ro 25-6981 suppression of co-agonist (glutamate/glycine) Ca2+ response, 10 min pre-incubation, compound concentration not given
# In short: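 HEK293 with stable GRIN1 and tetracycline-induced GRIN2B, loaded with fluo-8 and preincubated 10 min with compound plus Ro 25-6981 and 5,7-dichlorokynurenic acid. Ca2+ response recorded 2 min after glutamate/glycine/CaCl2 co-agonist addition. % reversal = 100*(R−Rneg)/(Rpos−Rneg) from end fluorescence ratios.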
# T1 sequence (Q13224 27-1484, other chains not shown): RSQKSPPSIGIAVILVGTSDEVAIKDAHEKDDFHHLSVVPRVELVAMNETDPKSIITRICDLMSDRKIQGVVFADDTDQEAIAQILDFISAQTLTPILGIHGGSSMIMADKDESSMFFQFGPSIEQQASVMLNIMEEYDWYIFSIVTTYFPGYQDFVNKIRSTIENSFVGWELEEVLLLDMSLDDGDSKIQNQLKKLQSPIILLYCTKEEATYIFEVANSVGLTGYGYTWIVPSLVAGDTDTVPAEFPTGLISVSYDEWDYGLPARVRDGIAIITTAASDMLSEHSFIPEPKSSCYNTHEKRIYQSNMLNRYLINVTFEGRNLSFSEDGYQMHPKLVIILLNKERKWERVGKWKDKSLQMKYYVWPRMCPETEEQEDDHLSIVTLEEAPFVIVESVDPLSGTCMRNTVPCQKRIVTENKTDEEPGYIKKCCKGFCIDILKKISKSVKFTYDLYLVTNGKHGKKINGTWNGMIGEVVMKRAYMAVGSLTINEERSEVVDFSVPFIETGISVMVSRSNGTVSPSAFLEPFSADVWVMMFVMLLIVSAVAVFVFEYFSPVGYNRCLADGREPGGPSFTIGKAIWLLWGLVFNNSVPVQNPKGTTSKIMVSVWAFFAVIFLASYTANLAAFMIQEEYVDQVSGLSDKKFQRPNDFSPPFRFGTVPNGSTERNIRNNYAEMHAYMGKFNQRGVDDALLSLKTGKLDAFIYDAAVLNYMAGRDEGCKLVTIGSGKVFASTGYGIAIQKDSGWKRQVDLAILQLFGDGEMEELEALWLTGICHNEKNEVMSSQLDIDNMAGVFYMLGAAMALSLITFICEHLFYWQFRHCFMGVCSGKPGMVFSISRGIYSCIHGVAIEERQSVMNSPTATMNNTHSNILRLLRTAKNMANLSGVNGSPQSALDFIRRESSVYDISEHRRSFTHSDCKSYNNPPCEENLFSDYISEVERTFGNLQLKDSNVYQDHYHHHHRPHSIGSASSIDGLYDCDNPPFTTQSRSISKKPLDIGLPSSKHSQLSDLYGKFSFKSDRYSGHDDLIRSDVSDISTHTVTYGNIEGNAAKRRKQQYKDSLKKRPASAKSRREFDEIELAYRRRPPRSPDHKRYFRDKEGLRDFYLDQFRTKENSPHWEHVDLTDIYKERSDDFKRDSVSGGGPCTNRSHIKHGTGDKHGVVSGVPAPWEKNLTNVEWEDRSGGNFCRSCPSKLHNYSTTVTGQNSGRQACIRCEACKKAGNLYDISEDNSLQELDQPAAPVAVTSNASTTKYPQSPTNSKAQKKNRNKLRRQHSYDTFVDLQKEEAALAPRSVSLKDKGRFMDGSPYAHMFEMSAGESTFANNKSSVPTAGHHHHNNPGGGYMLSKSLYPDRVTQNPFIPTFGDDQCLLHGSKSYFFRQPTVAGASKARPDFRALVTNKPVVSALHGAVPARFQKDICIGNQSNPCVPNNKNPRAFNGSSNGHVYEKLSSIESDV
row,Structure (SMILES),Response Recovered (%)
1,"O=C(On1cnc2scc(-c3ccc(F)c(Cl)c3)c2c1=O)N1CCCC1 [Example 86, 5-(3-chloro-4-fluorophenyl)-4-oxo-3H,4H-thieno[2,3-d]pyrimidin-3-yl pyrrolidine-1-carboxylate]",48
2,"O=C(On1cnc2scc(-c3ccc(Cl)c(F)c3)c2c1=O)N1CCCC1 [Example 87, 5-(4-chloro-3-fluorophenyl)-4-oxo-3H,4H-thieno[2,3-d]pyrimidin-3-yl pyrrolidine-1-carboxylate]",32
3,"O=C(On1cnc2scc(-c3ccc(F)c(Cl)c3)c2c1=O)N1CCC(F)C1 (centres unmarked) [Example 88, 5-(3-chloro-4-fluorophenyl)-4-oxo-3H,4H-thieno[2,3-d]pyrimidin-3-yl 3-fluoropyrrolidine-1-carboxylate]",83
4,"O=C(Nn1cnc2scc(-c3ccc(Cl)c(C(F)(F)F)c3)c2c1=O)N1CCCC1 [Example 89, N-(5-(4-chloro-3-(trifluoromethyl)phenyl)-4-oxothieno[2,3-d]pyrimidin-3(4H)-yl)pyrrolidine-1-carboxamide]",29
5,O=C(Nn1cnc2scc(-c3ccc(F)c(Cl)c3)c2c1=O)N1CCCC1 [Example 90],10
6,"O=C(CNn1cnc2scc(-c3ccc(Cl)c(C(F)(F)F)c3)c2c1=O)N1CCCC1 [Example 91, 5-(4-chloro-3-(trifluoromethyl)phenyl)-3-((2-oxo-2-(pyrrolidin-1-yl)ethyl)amino)thieno[2,3-d]pyrimidin-4(3H)-one]",2
7,"O=C(COn1cnc2scc(-c3ccc(Cl)c(C(F)(F)F)c3)c2c1=O)N1CCCC1 [Example 92, 5-(4-chloro-3-(trifluoromethyl)phenyl)-3-(2-oxo-2-(pyrrolidin-1-yl)ethoxy)thieno[2,3-d]pyrimidin-4(3H)-one]",37
8,"O=C(COn1cnc2scc(-c3ccc(F)c(Cl)c3)c2c1=O)N1CCCC1 [Example 93, 5-(3-chloro-4-fluorophenyl)-3-[2-oxo-2-(pyrrolidin-1-yl)ethoxy]-3H,4H-thieno┌2,3-d┐pyrimidin-4-one]",−1
9,"O=c1c2c(-c3ccc(Cl)c(C(F)(F)F)c3)csc2ncn1/N=C/N1CCCC1 [Example 94, (E)-5-(4-chloro-3-(trifluoromethyl)phenyl)-3-((pyrrolidin-1-ylmethylene)amino)thieno[2,3-d]pyrimidin-4(3H)-one]",18
10,"O=C(Nn1cnc2scc(-c3ccc(Cl)c(C(F)(F)F)c3)c2c1=O)C1CCCC1 [Example 95, N-(5-(4-chloro-3-(trifluoromethyl)phenyl)-4-oxothieno[2,3-d]pyrimidin-3(4H)-yl)cyclopentanecarboxamide]",21
11,"O=C(Nn1cnc2scc(-c3ccc(F)c(Cl)c3)c2c1=O)C1CCCC1 [Example 96, N-[5-(3-chloro-4-fluorophenyl)-4-oxo-3H,4H-thieno[2,3-d]pyrimidin-3-yl]cyclopentanecarboxamide]",27
12,"CCOC(=O)Cn1c(C)nc2scc(-c3ccc(Cl)cc3)c2c1=O [Example 97, Ethyl 2-(5-(4-chlorophenyl)-2-methyl-4-oxothieno[2,3-d]pyrimidin-3(4H)-yl)acetate]",2
13,"Cc1nc2scc(-c3ccc(Cl)cc3)c2c(=O)n1CC(=O)N1CCCC1 [Example 98, 5-(4-chlorophenyl)-2-methyl-3-(2-oxo-2-(pyrrolidin-1-yl)ethyl)thieno[2,3-d]pyrimidin-4(3H)-one]",6
14,"Cc1nc2scc(-c3ccc(Cl)cc3)c2c(=O)n1CC(=O)N1CCCC1C(F)(F)F (centres unmarked) [Example 99, 5-(4-chlorophenyl)-2-methyl-3-{2-oxo-2-[2-(trifluoromethyl)pyrrolidin-1-yl]ethyl}-3H,4H-thieno[2,3-d]pyrimidin-4-one]",3
15,"CN(C)/C=N/n1cnc2scc(-c3ccc(Cl)c(C(F)(F)F)c3)c2c1=O [Example 100, (E)-N′-(5-(4-chloro-3-(trifluoromethyl)phenyl)-4-oxothieno[2,3-d]pyrimidin-3(4H)-yl)-N,N-dimethylformimidamide]",14
16,"O=C(CCn1cnc2scc(-c3ccc(Cl)c(C(F)(F)F)c3)c2c1=O)N1CCCC1 [Example 101, 5-(4-chloro-3-(trifluoromethyl)phenyl)-3-(3-oxo-3-(pyrrolidin-1-yl)propyl)thieno[2,3-d]pyrimidin-4(3H)-one]",6
17,"O=C(CCn1cnc2scc(-c3ccc(Cl)c(C(F)(F)F)c3)c2c1=O)N1CCC(F)C1 (centres unmarked) [Example 102, 5-[4-chloro-3-(trifluoromethyl)phenyl]-3-[3-(3-fluoropyrrolidin-1-yl)-3-oxopropyl]-3H,4H-thieno[2,3-d]pyrimidin-4-one]",2
18,"O=C(CCn1cnc2scc(-c3ccc(Cl)c(C(F)(F)F)c3)c2c1=O)N1CCCC1C(F)(F)F (centres unmarked) [Example 103, 5-[4-chloro-3-(trifluoromethyl)phenyl]-3-{3-oxo-3-[2-(trifluoromethyl)pyrrolidin-1-yl]propyl}-3H,4H-thieno[2,3-d]pyrimidin-4-one]",−2
19,"O=C(Cn1c(C(F)(F)F)nc2scc(-c3ccc(Cl)cc3)c2c1=O)N1CCCC1C(F)(F)F (centres unmarked) [Example 104, 5-(4-chlorophenyl)-3-(2-oxo-2-(2-(trifluoromethyl)pyrrolidin-1-yl)ethyl)-2-(trifluoromethyl)thieno[2,3-d]pyrimidin-4(3H)-one]",−2
20,"O=C(Cn1c(C(F)(F)F)nc2scc(-c3ccc(Cl)cc3)c2c1=O)N1CCCC1 [Example 105, 5-(4-chlorophenyl)-3-[2-oxo-2-(pyrrolidin-1-yl)ethyl]-2-(trifluoromethyl)-3H,4H-thieno[2,3-d]pyrimidin-4-one]",−1
